In patent US4963542A, “Cephalosporin derivatives” (Takeda Chemical Industries, Ltd., priority 1976, dated 1990):

Key:
Escherichia coli 0-111 [1] = assay: Therapeutic effects on infected mice; assay type: in vivo, Male mouse, ICR/SLC; conditions: Escherichia coli, 0111, sc, 168 h, s.c. single dose immediately after intraperitoneal infection, 7 days observation
Description: The therapeutic efficacies of several representative compounds [I] of this invention and of cephaloridine on infected mice are also set forth in the tables.
(b) Therapeutic effects on infected mice (Table 3 and Table 4)
Test animal: Male mouse, ICR/SLC
A group of five animals was employed per drug.
Route of infection: Intraperitoneal
Infectious bacteria: Escherichia coli 0-111
Period of observation: 7 days
Method of administration: Test compound (1 mg, 10 mg, 100 mg or 200 mg) was dissolved in sterile saline solution (100 ml) and 0.2 ml of the solution was administered subcutaneously as a single dose immediately after infection. Two fold dilutions of each solution were administered to five groups of 5 mice each.

[2] = tested on: Staphylococcus aureus 1840; assay: Minimal inhibitory concentration, agar serial dilution; assay type: cell-based; conditions: TSA, inoculum 10^7 /ml
Excerpt: (§1) (a) Minimal inhibitory concentrations (Table 1 and 2)
(§2) Method: Agar serial dilution

[3] = tested on: Citrobacter freundii GN99; assay: as above; assay type: cell-based; conditions: TSA, inoculum 10^7 /ml
Excerpt: as §1, §2

[4] = tested on: Proteus vulgaris IFO 3988; assay: as above; assay type: cell-based; conditions: TSA, inoculum 10^7 /ml
Excerpt: as §1, §2

Proteus mirabilis GN4359 = assay: as above; assay type: cell-based; conditions: TSA, inoculum 10^7 /ml
Excerpt: as §1, §2

[5] = tested on: Citrobacter freundii GN1706; assay: as above; assay type: cell-based; conditions: TSA, inoculum 10^7 /ml
Excerpt: as §1, §2

[6] = tested on: Klebsiella pneumoniae GN-3835; assay: as above; assay type: cell-based; conditions: TSA, inoculum 10^7 /ml
Excerpt: as §1, §2

Proteus vulgaris GN4413 = assay: as above; assay type: cell-based; conditions: TSA, inoculum 10^7 /ml
Excerpt: as §1, §2

Serratia marcescens TN24 = assay: as above; assay type: cell-based; conditions: TSA, inoculum 10^7 /ml
Excerpt: as §1, §2

Proteus rettgeri TN338 = assay: as above; assay type: cell-based; conditions: TSA, inoculum 10^7 /ml
Excerpt: as §1, §2

Proteus rettgeri GN4733 = assay: as above; assay type: cell-based; conditions: TSA, inoculum 10^7 /ml
Excerpt: as §1, §2

[7] = tested on: Escherichia coli NIHJ JC-2; assay: as above; assay type: cell-based; conditions: TSA, inoculum 10^7 /ml
Excerpt: as §1, §2

Proteus morganii IFO3168 = assay: as above; assay type: cell-based; conditions: TSA, inoculum 10^7 /ml
Excerpt: as §1, §2

Escherichia coli 0-111 [8] = assay: as above; assay type: cell-based; conditions: TSA, inoculum 10^7 /ml
Excerpt: as §1, §2

Escherichia coli T-7 = assay: as above; assay type: cell-based; conditions: TSA, inoculum 10^7 /ml
Excerpt: as §1, §2

[9] = tested on: Enterobacter cloacae TN1282; assay: as above; assay type: cell-based; conditions: TSA, inoculum 10^7 /ml
Excerpt: as §1, §2

Klebsiella pneumoniae DT = assay: as above; assay type: cell-based; conditions: TSA, inoculum 10^7 /ml
Excerpt: as §1, §2

[10] = tested on: Staphylococcus aureus 209P; assay: as above; assay type: cell-based; conditions: TSA, inoculum 10^7 /ml
Excerpt: as §1, §2

[11] = tested on: Serratia marcescens IFO 12648; assay: as above; assay type: cell-based; conditions: TSA, inoculum 10^7 /ml
Excerpt: as §1, §2

SMILES	ED50 (Escherichia coli 0-111 [1]; Table 4)	Minimal inhibitory concentration (MIC) [2]	Minimal inhibitory concentration (MIC) [3]	Minimal inhibitory concentration (MIC) [4]	Minimal inhibitory concentration (MIC) (Proteus mirabilis GN4359)	Minimal inhibitory concentration (MIC) [5]	Minimal inhibitory concentration (MIC) [6]	Minimal inhibitory concentration (MIC) (Proteus vulgaris GN4413)	Minimal inhibitory concentration (MIC) (Serratia marcescens TN24)	Minimal inhibitory concentration (MIC) (Proteus rettgeri TN338)	Minimal inhibitory concentration (MIC) (Proteus rettgeri GN4733)	Minimal inhibitory concentration (MIC) [7]	Minimal inhibitory concentration (MIC) (Proteus morganii IFO3168)	Minimal inhibitory concentration (MIC) (Escherichia coli 0-111 [8])	Minimal inhibitory concentration (MIC) (Escherichia coli T-7)	Minimal inhibitory concentration (MIC) [9]	Minimal inhibitory concentration (MIC) (Klebsiella pneumoniae DT)	Minimal inhibitory concentration (MIC) [10]	Minimal inhibitory concentration (MIC) [11]	ED50 (Escherichia coli 0-111 [1]; Table 3)
Cn1cnnc1SCC1=C(C(=O)O)N2C(=O)C(NC(=O)/C(=N\O)c3csc(=N)[nH]3)C2SC1 (stereo not drawn) [Example 15, sodium 7-[2-(2-imino-4-thiazolin-4-yl)-2-hydroxyimino-acetamido]-3-(4-methyl-1,2,4-triazol-3-yl)thiomethyl-3-cephem-4-carboxylate (syn-isomer)]	0.016 mg/kg	0.78	0.05	0.05	0.10	0.05	0.05	3.13	0.78	≤ 0.012	0.10	0.024	0.024	≤ 0.012	0.39	1.56	0.024	0.78	0.78	
O=C(Cc1cccs1)N[C@@H]1C(=O)N2C(C(=O)[O-])=C(C[n+]3ccccc3)CS[C@H]12 [Cephaloridine, 7-(2-thienylacetamido)-3-(1-pyridyl)methyl-3-cephem-4-carboxylic acid betaine, reference compound]	1.81 mg/kg	0.39	50	6.25	6.25	> 100	12.5	> 100	> 100	1.56	> 100	3.13	> 100	1.56	> 100	> 100	1.56	0.05	> 100	2.6 mg/kg
Cn1nnnc1SCC1=C(C(=O)O)N2C(=O)C(NC(=O)/C(=N\O)c3csc(=N)[nH]3)C2SC1 (stereo not drawn) [Example 12, sodium 7-[2-(2-imino-4-thiazolin-4-yl)-2-hydroxyimino-acetamido]-3-(1-methyl-1H-tetrazol-5-yl)thiomethyl-3-cephem-4-carboxylate (syn-isomer)]		0.78	0.05	0.05	0.10	0.10	0.10	6.25	0.39	≤ 0.012	0.05	0.05	0.024	≤ 0.012	0.78	1.56	0.024	0.39	0.78	0.028 mg/kg
CC(=O)OCC1=C(C(=O)O)N2C(=O)C(NC(=O)/C(=N\O)c3csc(=N)[nH]3)C2SC1 (stereo not drawn) [Example 5, sodium 7-[2-(2-imino-4-thiazolin-4-yl)-2-hydroxyimino-acetamido]-3-acetoxymethyl-3-cephem-4-carboxylate (syn-isomer)]		0.39	0.05	0.05	0.05	0.10	0.05	12.5	1.56	≤ 0.012	0.024	0.024	0.20	≤ 0.012	0.39	6.25	≤ 0.012	0.39	6.25	0.033 mg/kg
